Test results published in ChEMBL document CHEMBL6083259, “Discovery of quinazoline-benzothiazole derivatives as novel potent protease-activated receptor 4 antagonists with improved pharmacokinetics and low bleeding liability” (Eur J Med Chem, 2024).
Calls of active or inactive are those of the source. The calls are words filed in the database; no cut-off is given here.

Tests used:
[1] = Clearance in male Sprague-Dawley rat at 0.5 mg/kg, iv measured after 24 hrs by LC-MS/MS analysis; type: ADME, organism-based; settings: in vivo
[2] = Antagonist activity at […] expressed in HEK293/Galpha15 cells assessed as inhibition of 2-furoyl-LIGRLO-NH2-induced calcium mobilization incubated for 30 mins by FLIPR assay; type: cell-based; settings: HEK293/Galpha15, 0.5 h
[3] = Half-life in male Sprague-Dawley rat at 2 mg/kg, po measured after 24 hrs by LC-MS/MS analysis; type: ADME, organism-based; settings: in vivo
Plasma [4] = test: Inhibition of collagen-induced platelet aggregation in human platelet rich plasma at 10 uM preincubated for 5 mins followed by collagen addition and measured after 5 mins by aggregometer; type: functional, cell-free
[5] = Cmax in male Sprague-Dawley rat at 0.5 mg/kg, iv measured after 24 hrs by LC-MS/MS analysis; type: ADME, organism-based; settings: in vivo
Plasma [6] = test: Inhibition of SFFLLRN-NH2 peptide-induced platelet aggregation in human platelet rich plasma at 10 uM preincubated for 5 mins followed by peptide addition and measured after 5 mins by aggregometer; type: functional, cell-free
[7] = Clearance in male Sprague-Dawley rat at 2 mg/kg, po measured after 24 hrs by LC-MS/MS analysis; type: ADME, organism-based; settings: in vivo
Plasma [8] = test: Inhibition of ADP-induced platelet aggregation in human platelet rich plasma at 10 uM preincubated for 5 mins followed by ADP addition and measured after 5 mins by aggregometer; type: functional, cell-free
[9] = Oral bioavailability in male Sprague-Dawley rat at 2 mg/kg measured after 24 hrs by LC-MS/MS analysis; type: ADME, organism-based; settings: in vivo
[10] = molecular target: T1, Proteinase-activated receptor 4 (Homo sapiens, UniProt Q96RI0); test: Antagonist activity at human PAR4 expressed in HEK293/Galpha15 cells assessed as inhibition of AYPGKF-NH2-induced calcium mobilization incubated for 30 mins by FLIPR assay; type: functional, cell-based
T1 sequence (Q96RI0 whole entry): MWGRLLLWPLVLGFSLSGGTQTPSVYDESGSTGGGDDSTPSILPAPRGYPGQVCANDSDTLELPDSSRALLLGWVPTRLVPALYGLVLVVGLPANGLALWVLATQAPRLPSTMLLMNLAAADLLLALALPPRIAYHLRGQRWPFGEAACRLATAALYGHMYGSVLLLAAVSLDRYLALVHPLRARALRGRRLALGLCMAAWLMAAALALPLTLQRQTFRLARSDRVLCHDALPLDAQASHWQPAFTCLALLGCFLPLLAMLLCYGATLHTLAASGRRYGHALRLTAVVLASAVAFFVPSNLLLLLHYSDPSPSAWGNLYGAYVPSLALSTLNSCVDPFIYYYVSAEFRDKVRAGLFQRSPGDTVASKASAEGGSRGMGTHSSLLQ

[11] = molecular target: T2, Proteinase-activated receptor 1 (Homo sapiens, UniProt P25116); test: Antagonist activity at human PAR1 expressed in HEK293/Galpha15 cells assessed as inhibition of SFFLRR-NH2-induced calcium mobilization incubated for 30 mins by FLIPR assay; type: functional, cell-based
T2 sequence (P25116 whole entry): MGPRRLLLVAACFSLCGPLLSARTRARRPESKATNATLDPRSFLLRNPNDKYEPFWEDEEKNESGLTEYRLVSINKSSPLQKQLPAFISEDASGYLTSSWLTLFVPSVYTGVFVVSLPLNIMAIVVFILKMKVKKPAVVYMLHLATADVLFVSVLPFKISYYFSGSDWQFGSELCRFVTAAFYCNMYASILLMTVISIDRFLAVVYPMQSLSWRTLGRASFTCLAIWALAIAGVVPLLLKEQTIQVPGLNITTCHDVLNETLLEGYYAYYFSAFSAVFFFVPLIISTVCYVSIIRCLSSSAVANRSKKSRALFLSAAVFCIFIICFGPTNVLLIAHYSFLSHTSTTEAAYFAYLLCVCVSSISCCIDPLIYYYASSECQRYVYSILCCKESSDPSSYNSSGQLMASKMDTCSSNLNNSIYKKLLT

Plasma [12] = test: Inhibition of thrombin-induced platelet aggregation in human platelet rich plasma at 10 uM preincubated for 5 mins followed by thrombin addition and measured after 5 mins by aggregometer; type: functional, cell-free; settings: time 10.0 min
Plasma [13] = test: Inhibition of […] peptide-induced platelet aggregation in human platelet rich plasma at 10 uM preincubated for 5 mins followed by peptide addition and measured after 5 mins by aggregometer; type: functional, cell-free; settings: time 10.0 min
[14] = Metabolic stability in human liver microsomes assessed as half-life at 1 uM measured upto 120 mins in presence of NADPH by LC-MS/MS analysis; type: ADME, Microsome
[15] = Toxicity in male C57BL/6 mouse assessed as prolongation of bleeding time at 10 mg/kg, po measured after 1.5 hrs by tail bleeding assay; type: organism-based; settings: in vivo
[16] = Protein binding in human plasma at 10 uM incubated for 6 hrs by LC-MS/MS analysis; type: ADME, cell-free; settings: read-out: PPB (converted)
[17] = Metabolic stability in rat liver microsomes assessed as half-life at 1 uM measured upto 120 mins in presence of NADPH by LC-MS/MS analysis; type: ADME, Microsome
[18] = Tmax in male Sprague-Dawley rat at 2 mg/kg, po measured after 24 hrs by LC-MS/MS analysis; type: ADME, organism-based; settings: in vivo
[19] = Cmax in male Sprague-Dawley rat at 2 mg/kg, po measured after 24 hrs by LC-MS/MS analysis; type: ADME, organism-based; settings: in vivo
[20] = Protein binding in rat plasma at 10 uM incubated for 6 hrs by LC-MS/MS analysis; type: ADME, cell-free; settings: read-out: PPB (converted)
[21] = molecular target: T3, Proteinase-activated receptor 4 (Homo sapiens) (UniProt Q96RI0); test: Antagonist activity at PAR4 in human platelet rich plasma assessed as inhibition of gamma-PAR4 agonist peptide (AYPGKF-NH2)-induced platelet aggregation at 200 nM preincubated for 5 mins followed by peptide addition and measured after 5 mins by aggregometer relative to control; type: cell-based; settings: filed as antagonist, time 10.0 min
T3 sequence (whole entry): T1 sequence (Q96RI0 whole entry)

[22] = Tmax in male Sprague-Dawley rat at 0.5 mg/kg, iv measured after 24 hrs by LC-MS/MS analysis; type: ADME, organism-based; settings: in vivo
[23] = Cytotoxicity against HEK293 cells assessed as reduction in cell viability incubated for 48 hrs by MTT assay; type: toxicity, cell-based; settings: human
[24] = Half-life in male Sprague-Dawley rat at 0.5 mg/kg, iv measured after 24 hrs by LC-MS/MS analysis; type: ADME, organism-based; settings: in vivo
[25] = AUC (0 to last) in male Sprague-Dawley rat at 2 mg/kg, po measured after 24 hrs by LC-MS/MS analysis; type: ADME, organism-based; settings: in vivo
[26] = AUC (0 to last) in male Sprague-Dawley rat at 0.5 mg/kg, iv measured after 24 hrs by LC-MS/MS analysis; type: ADME, organism-based; settings: in vivo
Plasma [27] = test: Inhibition of U46619-induced platelet aggregation in human platelet rich plasma at 10 uM preincubated for 5 mins followed by U46619 addition and measured after 5 mins by aggregometer; type: functional, cell-free
[28] = Tmax in iv dosed male Sprague-Dawley rat measured after 24 hrs by LC-MS/MS analysis; type: ADME, organism-based; settings: in vivo
[29] = Antagonist activity at PAR4 in mouse washed platelets assessed as inhibition of gamma-PAR4 agonist peptide (AYPGKF-NH2)-induced platelet aggregation preincubated for 5 mins followed by peptide addition and measured after 5 mins by aggregometer
[30] = Cmax in iv dosed male Sprague-Dawley rat measured after 24 hrs by LC-MS/MS analysis; type: ADME, organism-based; settings: in vivo
[31] = Half-life in po dosed male Sprague-Dawley rat measured after 24 hrs by LC-MS/MS analysis; type: ADME, organism-based; settings: in vivo
[32] = AUC (0 to last) in iv dosed male Sprague-Dawley rat measured after 24 hrs by LC-MS/MS analysis; type: ADME, organism-based; settings: in vivo
[33] = AUC (0 to last) in po dosed male Sprague-Dawley rat measured after 24 hrs by LC-MS/MS analysis; type: ADME, organism-based; settings: in vivo
[34] = Tmax in po dosed male Sprague-Dawley rat measured after 24 hrs by LC-MS/MS analysis; type: ADME, organism-based; settings: in vivo
[35] = Clearance in iv dosed male Sprague-Dawley rat measured after 24 hrs by LC-MS/MS analysis; type: ADME, organism-based; settings: in vivo
[36] = Cmax in po dosed male Sprague-Dawley rat measured after 24 hrs by LC-MS/MS analysis; type: ADME, organism-based; settings: in vivo
[37] = Half-life in iv dosed male Sprague-Dawley rat measured after 24 hrs by LC-MS/MS analysis; type: ADME, organism-based; settings: in vivo
[38] = Oral bioavailability in male Sprague-Dawley rat measured after 24 hrs by LC-MS/MS analysis; type: ADME, organism-based; settings: in vivo

COc1ncc2c(-c3nc4cc(F)c5c(c4s3)C[C@H](COC(=O)Nc3cccc(C#N)c3)O5)cc(C)cc2n1
clearance [1]: 12.8 mL/min/kg | IC50 [2]: > 1 µM | half-life [3]: 5.16 h | IC50 (Plasma [4]): > 10 µM | Cmax [5]: 394 ng/mL | IC50 (Plasma [6]): > 10 µM | CL/F [7]: 25.4 mL/min/kg | IC50 (Plasma [8]): > 10 µM | bioavailability [9]: 50.5% | IC50 [10]: 0.00172 µM | IC50 [11]: > 3.16 µM | inhibition (Plasma [12]): Active | inhibition (Plasma [13]): Active | half-life at 1 µM [14]: 4.16 h | Activity [15]: Non-toxic | fraction unbound at 6 h, 10 µM [16]: 0.0005 | half-life at 1 µM [17]: 1.49 h | Tmax [18]: 1.67 h | Cmax [19]: 214 ng/mL | fraction unbound at 6 h, 10 µM [20]: 0.0002 | inhibition [21]: 91.2% | Tmax [22]: 4.8 min | IC50 at 48 h [23]: > 20 µM | half-life [24]: 5.13 h | AUC(0-t) at 24 h [25]: 1220 ng·h/mL | AUC(0-t) at 24 h [26]: 636 ng·h/mL | IC50 (Plasma [27]): > 10 µM

COc1cc(Cl)c2nc(-c3cc(C)cc4c(=O)n(C)cnc34)sc2c1
Tmax [28]: 4.8 min | IC50 [29]: 0.084 µM | IC50 [2]: > 1 µM | Cmax [30]: 571 ng/mL | half-life [31]: 2.16 h | AUC(0-t) at 24 h [32]: 288 ng·h/mL | AUC(0-t) at 24 h [33]: 32 ng·h/mL | IC50 [11]: > 3.16 µM | Tmax [34]: 2.83 h | half-life at 1 µM [14]: 0.71 h | Activity [15]: Non-toxic | clearance [35]: 57.7 mL/min/kg | half-life at 1 µM [17]: 0.532 h | Cmax [36]: 6.4 ng/mL | inhibition [21]: 94.5% | half-life [37]: 1.4 h | IC50 at 48 h [23]: > 20 µM | bioavailability [38]: 3.71%

COCc1ncc2c(-c3nc4cc(F)c(OCCOC(=O)Nc5cc(F)cc(C#N)c5)cc4s3)cc(C)cc2n1
clearance [1]: 9.5 mL/min/kg | IC50 [2]: > 1 µM | half-life [3]: 1.78 h | IC50 (Plasma [4]): > 10 µM | Cmax [5]: 944 ng/mL | IC50 (Plasma [6]): > 10 µM | CL/F [7]: 65.3 mL/min/kg | IC50 (Plasma [8]): > 10 µM | bioavailability [9]: 13.2% | IC50 [10]: 0.0056 µM | IC50 [11]: > 3.16 µM | inhibition (Plasma [12]): Active | inhibition (Plasma [13]): Active | half-life at 1 µM [14]: 0.747 h | fraction unbound at 6 h, 10 µM [16]: 0.001 | half-life at 1 µM [17]: 2.12 h | Tmax [18]: 1 h | Cmax [19]: 146 ng/mL | fraction unbound at 6 h, 10 µM [20]: 0.0011 | inhibition [21]: 90.3% | Tmax [22]: 4.8 min | IC50 at 48 h [23]: > 20 µM | half-life [24]: 2.2 h | AUC(0-t) at 24 h [25]: 488 ng·h/mL | AUC(0-t) at 24 h [26]: 950 ng·h/mL | IC50 (Plasma [27]): > 10 µM

COc1ncc2c(-c3nc4cc(F)c5c(c4s3)C[C@H](COC(=O)Nc3cc(F)cc(C#N)c3)O5)cc(C)cc2n1
clearance [1]: 9.8 mL/min/kg | IC50 [2]: > 1 µM | half-life [3]: 7.05 h | IC50 (Plasma [4]): > 10 µM | Cmax [5]: 519 ng/mL | IC50 (Plasma [6]): > 10 µM | CL/F [7]: 37.7 mL/min/kg | IC50 (Plasma [8]): > 10 µM | bioavailability [9]: 27.3% | IC50 [10]: 0.00096 µM | IC50 [11]: > 3.16 µM | inhibition (Plasma [12]): Active | inhibition (Plasma [13]): Active | half-life at 1 µM [14]: 4.71 h | Activity [15]: Non-toxic | fraction unbound at 6 h, 10 µM [16]: 0.0004 | half-life at 1 µM [17]: 1.73 h | Tmax [18]: 1 h | Cmax [19]: 170 ng/mL | fraction unbound at 6 h, 10 µM [20]: 0.0001 | inhibition [21]: 94.7% | Tmax [22]: 4.8 min | IC50 at 48 h [23]: > 20 µM | half-life [24]: 6.89 h | AUC(0-t) at 24 h [25]: 865 ng·h/mL | AUC(0-t) at 24 h [26]: 808 ng·h/mL | IC50 (Plasma [27]): > 10 µM
